Reference: ChEMBL document CHEMBL1201862, “PubChem BioAssay data set” (2004)
Activity calls are given as the source filed them.

Columns and labels:
[1] = molecular target: T1, Short transient receptor potential channel 4 (Mus musculus, UniProt Q9QUQ5); test: block of DAMGO-driven TRPC4 calcium entry – cell-based, HEK293 TRPC4/mu-opioid, Fluo-4 calcium, dose response (AID 434942); assay type: functional;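 further: potency of inhibitors blocking the TRPC4 calcium response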
T1 sequence (Q9QUQ5 whole entry): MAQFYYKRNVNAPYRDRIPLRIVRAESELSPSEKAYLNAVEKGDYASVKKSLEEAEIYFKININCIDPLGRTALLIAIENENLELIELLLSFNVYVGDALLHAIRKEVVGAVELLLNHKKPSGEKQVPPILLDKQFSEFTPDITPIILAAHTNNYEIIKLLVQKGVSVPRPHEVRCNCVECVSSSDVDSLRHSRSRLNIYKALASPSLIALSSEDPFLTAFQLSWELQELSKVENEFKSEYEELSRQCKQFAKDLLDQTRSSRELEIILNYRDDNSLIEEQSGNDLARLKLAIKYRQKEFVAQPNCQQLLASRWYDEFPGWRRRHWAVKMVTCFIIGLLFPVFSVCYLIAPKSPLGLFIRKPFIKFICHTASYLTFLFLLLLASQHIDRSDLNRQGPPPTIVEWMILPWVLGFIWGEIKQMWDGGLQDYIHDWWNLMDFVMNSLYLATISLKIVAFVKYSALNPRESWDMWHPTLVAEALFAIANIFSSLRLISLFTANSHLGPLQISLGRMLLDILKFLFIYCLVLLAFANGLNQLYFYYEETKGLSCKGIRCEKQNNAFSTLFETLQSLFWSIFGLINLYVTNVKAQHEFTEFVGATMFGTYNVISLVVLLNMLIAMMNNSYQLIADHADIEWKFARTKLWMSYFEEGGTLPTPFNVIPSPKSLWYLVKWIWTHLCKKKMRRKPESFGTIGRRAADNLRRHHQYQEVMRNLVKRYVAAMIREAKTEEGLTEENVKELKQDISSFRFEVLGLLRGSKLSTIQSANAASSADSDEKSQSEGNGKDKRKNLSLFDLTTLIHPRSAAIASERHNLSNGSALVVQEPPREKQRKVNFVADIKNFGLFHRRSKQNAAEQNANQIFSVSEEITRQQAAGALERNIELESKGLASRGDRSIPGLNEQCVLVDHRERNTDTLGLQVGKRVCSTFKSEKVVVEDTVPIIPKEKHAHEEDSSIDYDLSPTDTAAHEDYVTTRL

Large T antigen = Large T antigen (Simian virus 40, UniProt P03070); assay type: functional, Betapolyomavirus macacae;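 further: Confirmatory-stage PubChem screen for compounds that inhibit SV40 T antigen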
[2] = molecular target: Peroxisome proliferator-activated receptor gamma/Nuclear receptor coactivator 1 (Homo sapiens, UniProt P37231); test: (§1) TR-FRET dose response biochemical High Throughput Screening assay for agonists of the steroid receptor coactivator 1 (SRC-1) recruitment by the peroxisome proliferator-activated receptor gamma (PPAR gamma): non-selective agonists. [Related pubchem assays (depositor defined):AID1300, AID1808, AID504735, AID631]; assay type: protein assay
[3] = molecular target: Peroxisome proliferator-activated receptor gamma/Nuclear receptor coactivator 3 (Homo sapiens, UniProt P37231); test: as §1, with “3 (SRC-3)” for “1 (SRC-1)”, “assays: 1301 (Confirmation screen.), 1048 (Primary screen.)]” for “assays (depositor defined):AID1300, AID1808, AID504735, AID631]”; assay type: functional
[4] = molecular target: Peroxisome proliferator-activated receptor gamma/Nuclear receptor coactivator 2 (Homo sapiens, UniProt P37231); test: TR-FRET dose response biochemical High Throughput Screening assay for agonists of the steroid receptor coactivator 2 (SRC-2) recruitment by the peroxisome proliferator-activated receptor gamma (PPAR gamma): non-selective agonists. [Related pubchem assays: 1297, 1032 ]; assay type: functional
[5] = Luminescence Cell-Based Dose Response HTS to Identify Inhibitors of 5'UTR Stem-Loop Driven Prion Protein mRNA Translation in H4 Neuroglioblastoma Cells. [Related pubchem assays: 1827 (Project Summary), 1813 (Primary HTS)]; assay type: functional
[6] = alpha-synuclein stem-loop luciferase translation blockers – H4 neuroglioma cells, luminescence, confirmation (AID 1988); assay type: functional, cell-based
[7] = molecular target: Luciferin 4-monooxygenase (Photinus pyralis, UniProt P08659); test: inhibition of purified Photinus pyralis luciferase – biochemical, luminescence, dose response (AID 1891)
[8] = Luminescence Cell-Based Dose Confirmation HTS to Identify Inhibitors of Platelet Dense Granule Release. [Related pubchem assays: 1663 (Primary HTS), 1678 (Summary of Project)]; assay type: functional
[9] = molecular target: T2, RNA-binding protein pos-1 (Caenorhabditis elegans, UniProt G5EF15); test: disruptors of C. elegans POS-1 RNA interaction – biochemical, fluorescence polarization, dose response (AID 1964);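 further: purified POS-1 fused to maltose binding protein made in E. coli; potency of compounds blocking POS-1 binding to fluorescent RNA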
T2 sequence (G5EF15 whole entry): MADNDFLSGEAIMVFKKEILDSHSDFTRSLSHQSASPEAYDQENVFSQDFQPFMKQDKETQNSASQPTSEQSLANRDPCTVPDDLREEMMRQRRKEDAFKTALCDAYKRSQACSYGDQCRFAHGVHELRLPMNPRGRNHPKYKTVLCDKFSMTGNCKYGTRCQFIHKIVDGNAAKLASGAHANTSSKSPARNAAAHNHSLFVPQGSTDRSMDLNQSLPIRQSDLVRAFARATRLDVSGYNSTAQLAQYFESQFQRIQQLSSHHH

[10] = molecular target: T3, Zinc finger protein mex-5 (Caenorhabditis elegans, UniProt Q9XUB2); test: potency of MEX-5 RNA-binding blockers – biochemical, C. elegans, fluorescence polarization, dose response (AID 1960)
T3 sequence (Q9XUB2 whole entry): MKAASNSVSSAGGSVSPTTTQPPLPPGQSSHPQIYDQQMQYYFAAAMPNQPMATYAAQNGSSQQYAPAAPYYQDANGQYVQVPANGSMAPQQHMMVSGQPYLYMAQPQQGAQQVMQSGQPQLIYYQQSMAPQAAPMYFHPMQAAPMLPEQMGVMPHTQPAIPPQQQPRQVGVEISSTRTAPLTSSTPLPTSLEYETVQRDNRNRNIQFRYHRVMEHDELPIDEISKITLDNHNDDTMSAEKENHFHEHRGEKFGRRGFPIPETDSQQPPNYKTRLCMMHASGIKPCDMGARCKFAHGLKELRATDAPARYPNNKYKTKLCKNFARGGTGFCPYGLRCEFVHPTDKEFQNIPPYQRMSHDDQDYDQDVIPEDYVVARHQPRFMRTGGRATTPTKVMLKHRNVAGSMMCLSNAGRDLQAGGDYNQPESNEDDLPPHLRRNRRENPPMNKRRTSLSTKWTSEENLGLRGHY

[11] = molecular target: T4, Carboxy-terminal domain RNA polymerase II polypeptide A small phosphatase 1 (Homo sapiens, UniProt Q9GZU7); test: CTDSP1 inhibitors, concentration-response, biochemical, absorbance readout, ultra-high-throughput screen actives (AID 540297); assay type: functional
T4 sequence (Q9GZU7 whole entry): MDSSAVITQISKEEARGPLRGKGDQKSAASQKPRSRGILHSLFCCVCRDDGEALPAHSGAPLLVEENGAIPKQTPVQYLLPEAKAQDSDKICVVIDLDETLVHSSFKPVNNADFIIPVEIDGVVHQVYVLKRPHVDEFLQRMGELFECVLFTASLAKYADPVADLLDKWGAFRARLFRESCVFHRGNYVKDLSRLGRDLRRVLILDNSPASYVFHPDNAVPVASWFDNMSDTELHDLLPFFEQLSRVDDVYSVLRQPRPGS

Coagulation factor XII = molecular target: T5, Coagulation factor XII (Homo sapiens, UniProt P00748); assay type: functional;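 further: activated factor XIIa alpha cleaving a fluorogenic AMC peptide substrate; inhibitor potency from loss of enzyme activity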
T5 sequence (P00748 whole entry): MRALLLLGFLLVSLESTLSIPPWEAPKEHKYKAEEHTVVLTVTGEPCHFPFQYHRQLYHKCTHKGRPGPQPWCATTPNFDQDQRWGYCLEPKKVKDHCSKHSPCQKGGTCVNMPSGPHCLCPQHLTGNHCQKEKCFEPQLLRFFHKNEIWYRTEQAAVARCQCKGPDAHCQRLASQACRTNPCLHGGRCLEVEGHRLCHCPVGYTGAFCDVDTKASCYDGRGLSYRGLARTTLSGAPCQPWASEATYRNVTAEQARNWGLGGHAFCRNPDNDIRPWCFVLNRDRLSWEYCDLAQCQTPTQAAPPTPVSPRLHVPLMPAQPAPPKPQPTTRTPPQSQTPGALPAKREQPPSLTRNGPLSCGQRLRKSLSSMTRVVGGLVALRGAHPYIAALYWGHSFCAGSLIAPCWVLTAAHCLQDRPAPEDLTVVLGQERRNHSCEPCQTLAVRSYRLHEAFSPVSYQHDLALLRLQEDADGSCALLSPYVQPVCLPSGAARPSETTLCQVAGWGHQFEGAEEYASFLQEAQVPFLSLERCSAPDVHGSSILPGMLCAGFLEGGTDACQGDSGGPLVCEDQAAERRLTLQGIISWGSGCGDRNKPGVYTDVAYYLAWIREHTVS

Genome polyprotein = Genome polyprotein (dengue virus type 2, UniProt P29990); test: flavivirus cap methylation enzyme inhibition – biochemical, confirmation dose response, primary screen (AID 588689); assay type: functional

Sequence of Peroxisome proliferator-activated receptor gamma/Nuclear receptor coactivator 3 (P37231 whole entry): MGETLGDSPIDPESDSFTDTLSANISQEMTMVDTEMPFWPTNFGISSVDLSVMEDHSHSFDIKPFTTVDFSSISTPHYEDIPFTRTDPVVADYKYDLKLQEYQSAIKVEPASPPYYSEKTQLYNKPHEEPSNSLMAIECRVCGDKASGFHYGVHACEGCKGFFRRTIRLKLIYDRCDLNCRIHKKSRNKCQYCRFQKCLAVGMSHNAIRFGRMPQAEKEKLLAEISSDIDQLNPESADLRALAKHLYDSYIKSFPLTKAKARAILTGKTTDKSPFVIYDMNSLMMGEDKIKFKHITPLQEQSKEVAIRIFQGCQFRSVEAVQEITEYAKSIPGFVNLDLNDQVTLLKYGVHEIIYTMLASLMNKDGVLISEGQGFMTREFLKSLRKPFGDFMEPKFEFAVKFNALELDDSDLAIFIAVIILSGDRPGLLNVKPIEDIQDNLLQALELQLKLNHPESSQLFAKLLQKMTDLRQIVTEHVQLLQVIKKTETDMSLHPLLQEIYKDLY
Sequence of Peroxisome proliferator-activated receptor gamma/Nuclear receptor coactivator 3 (Q9Y6Q9 whole entry, further chain): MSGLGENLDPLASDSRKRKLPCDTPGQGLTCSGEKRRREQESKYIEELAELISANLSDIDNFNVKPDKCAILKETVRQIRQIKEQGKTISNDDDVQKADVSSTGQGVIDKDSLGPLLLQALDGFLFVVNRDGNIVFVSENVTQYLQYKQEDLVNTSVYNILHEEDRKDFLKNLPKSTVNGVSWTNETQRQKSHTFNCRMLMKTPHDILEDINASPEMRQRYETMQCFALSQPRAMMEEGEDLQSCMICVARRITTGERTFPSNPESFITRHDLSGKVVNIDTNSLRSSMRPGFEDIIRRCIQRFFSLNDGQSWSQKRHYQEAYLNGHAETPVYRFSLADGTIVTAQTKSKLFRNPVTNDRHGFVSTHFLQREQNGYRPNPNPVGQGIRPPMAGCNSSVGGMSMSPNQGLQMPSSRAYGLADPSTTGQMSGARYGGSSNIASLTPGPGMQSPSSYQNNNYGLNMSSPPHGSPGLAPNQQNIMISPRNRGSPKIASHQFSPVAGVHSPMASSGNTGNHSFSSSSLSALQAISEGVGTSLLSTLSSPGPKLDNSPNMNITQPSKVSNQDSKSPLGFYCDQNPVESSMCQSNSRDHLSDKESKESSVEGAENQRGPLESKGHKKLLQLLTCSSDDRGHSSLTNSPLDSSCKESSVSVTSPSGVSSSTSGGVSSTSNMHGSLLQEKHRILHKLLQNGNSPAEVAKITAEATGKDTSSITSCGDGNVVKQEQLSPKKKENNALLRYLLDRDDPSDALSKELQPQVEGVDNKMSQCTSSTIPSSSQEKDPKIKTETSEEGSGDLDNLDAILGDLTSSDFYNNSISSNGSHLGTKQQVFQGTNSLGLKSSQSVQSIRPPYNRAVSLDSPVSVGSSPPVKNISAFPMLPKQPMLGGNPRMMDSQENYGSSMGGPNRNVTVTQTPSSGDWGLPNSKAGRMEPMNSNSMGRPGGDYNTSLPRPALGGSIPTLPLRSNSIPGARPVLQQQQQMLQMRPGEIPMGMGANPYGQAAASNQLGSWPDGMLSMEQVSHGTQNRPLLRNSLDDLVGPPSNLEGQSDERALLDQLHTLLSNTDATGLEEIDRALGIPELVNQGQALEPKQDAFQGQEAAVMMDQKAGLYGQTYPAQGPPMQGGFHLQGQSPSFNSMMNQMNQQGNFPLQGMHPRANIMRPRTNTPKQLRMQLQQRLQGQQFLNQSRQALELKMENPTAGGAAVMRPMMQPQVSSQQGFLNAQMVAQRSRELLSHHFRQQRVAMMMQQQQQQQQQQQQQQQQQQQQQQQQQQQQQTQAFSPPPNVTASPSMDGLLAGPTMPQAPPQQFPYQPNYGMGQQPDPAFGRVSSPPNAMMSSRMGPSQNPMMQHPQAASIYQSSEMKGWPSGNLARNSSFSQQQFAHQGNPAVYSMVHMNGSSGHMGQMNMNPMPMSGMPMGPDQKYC
Sequence of Peroxisome proliferator-activated receptor gamma/Nuclear receptor coactivator 2 (P37231 whole entry): as the sequence (P37231 whole entry) above
Sequence of Peroxisome proliferator-activated receptor gamma/Nuclear receptor coactivator 2 (Q15596 whole entry, further chain): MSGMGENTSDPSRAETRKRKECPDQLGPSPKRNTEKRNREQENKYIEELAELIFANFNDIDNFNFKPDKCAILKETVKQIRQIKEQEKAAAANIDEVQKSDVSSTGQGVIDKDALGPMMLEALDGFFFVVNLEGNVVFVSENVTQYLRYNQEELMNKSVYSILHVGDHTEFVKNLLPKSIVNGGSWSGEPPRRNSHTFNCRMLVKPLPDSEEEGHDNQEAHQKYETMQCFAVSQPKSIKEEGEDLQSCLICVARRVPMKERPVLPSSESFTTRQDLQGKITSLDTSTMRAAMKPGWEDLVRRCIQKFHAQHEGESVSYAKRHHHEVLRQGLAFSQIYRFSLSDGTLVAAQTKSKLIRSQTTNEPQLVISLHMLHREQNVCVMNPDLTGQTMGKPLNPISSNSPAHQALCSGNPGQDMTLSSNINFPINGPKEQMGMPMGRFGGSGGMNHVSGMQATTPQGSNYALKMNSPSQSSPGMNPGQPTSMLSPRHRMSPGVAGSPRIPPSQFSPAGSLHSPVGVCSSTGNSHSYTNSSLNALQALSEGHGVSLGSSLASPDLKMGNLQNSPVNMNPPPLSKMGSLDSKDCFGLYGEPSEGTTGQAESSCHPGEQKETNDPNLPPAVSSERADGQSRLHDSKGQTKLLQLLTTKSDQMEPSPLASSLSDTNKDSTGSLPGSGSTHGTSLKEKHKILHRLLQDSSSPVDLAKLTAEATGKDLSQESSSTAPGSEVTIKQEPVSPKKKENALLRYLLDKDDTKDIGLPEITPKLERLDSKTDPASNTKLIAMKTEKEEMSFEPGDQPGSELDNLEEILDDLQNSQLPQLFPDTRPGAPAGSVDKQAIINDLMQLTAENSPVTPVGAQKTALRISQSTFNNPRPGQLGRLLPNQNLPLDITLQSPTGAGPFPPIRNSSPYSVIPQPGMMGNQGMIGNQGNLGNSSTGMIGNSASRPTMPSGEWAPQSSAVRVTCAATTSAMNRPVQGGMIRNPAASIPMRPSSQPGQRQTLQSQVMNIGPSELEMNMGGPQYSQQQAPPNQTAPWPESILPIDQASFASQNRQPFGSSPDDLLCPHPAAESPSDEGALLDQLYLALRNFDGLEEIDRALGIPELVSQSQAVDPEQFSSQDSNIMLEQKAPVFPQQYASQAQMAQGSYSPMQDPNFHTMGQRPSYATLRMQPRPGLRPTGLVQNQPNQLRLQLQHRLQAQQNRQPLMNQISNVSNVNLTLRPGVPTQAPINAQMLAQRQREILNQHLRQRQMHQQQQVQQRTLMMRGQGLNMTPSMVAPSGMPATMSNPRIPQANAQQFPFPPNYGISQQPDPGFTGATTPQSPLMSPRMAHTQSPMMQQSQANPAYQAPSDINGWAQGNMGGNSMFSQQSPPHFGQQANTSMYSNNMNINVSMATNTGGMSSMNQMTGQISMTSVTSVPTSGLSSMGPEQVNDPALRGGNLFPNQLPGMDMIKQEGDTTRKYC
Sequence of Luciferin 4-monooxygenase (P08659 whole entry): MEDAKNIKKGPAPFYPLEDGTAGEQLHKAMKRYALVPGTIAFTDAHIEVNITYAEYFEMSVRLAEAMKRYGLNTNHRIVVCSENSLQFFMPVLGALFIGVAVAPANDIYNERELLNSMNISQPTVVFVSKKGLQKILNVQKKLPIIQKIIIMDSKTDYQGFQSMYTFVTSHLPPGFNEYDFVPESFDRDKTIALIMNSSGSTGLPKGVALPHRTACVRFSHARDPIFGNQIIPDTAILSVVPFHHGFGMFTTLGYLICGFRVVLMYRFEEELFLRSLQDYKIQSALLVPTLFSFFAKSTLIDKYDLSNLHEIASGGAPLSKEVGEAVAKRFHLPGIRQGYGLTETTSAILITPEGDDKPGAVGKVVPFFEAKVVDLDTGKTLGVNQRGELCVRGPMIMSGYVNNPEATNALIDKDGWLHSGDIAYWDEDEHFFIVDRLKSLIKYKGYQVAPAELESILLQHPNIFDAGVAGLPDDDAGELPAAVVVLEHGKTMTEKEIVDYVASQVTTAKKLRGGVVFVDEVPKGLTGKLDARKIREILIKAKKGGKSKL

CSCCNC(=O)c1ccc(OC2CCN(CCc3ccccc3)CC2)cc1
EC50 [1]: 0.473 µM (active)

O=[N+]([O-])c1cccc(-c2nnc(C3CC3)o2)c1
EC50 [1]: 3.76 µM (active)

COc1cc(/C=N/Nc2nc3ccccc3[nH]2)cc(OC)c1O
IC50 (Large T antigen): 7.09 µM (active)

Cn1c(=O)cc(SCC(=O)NCC2CCCO2)c2ccccc21 (stereo not given)
EC50 [2]: > 79.4 µM (inactive)
EC50 [3]: > 79.4 µM (not active)
EC50 [4]: > 79.4 µM (not active)

c1ccc2nc(-c3nc4ccccc4[nH]3)ccc2c1
EC50 [5]: 11.1 µM (inconclusive)
EC50 [6]: 9.4 µM (active)
EC50 [7]: 0.49 µM (active)
EC50 [8]: 2.16 µM (active)

Cc1ccc(-c2nc(C[S+]([O-])CC(=O)NCCCN3CC(C)CC(C)C3)c(C)o2)cc1 (stereo not given)
EC50 [7]: > 112 µM (not active)
EC50 [8]: > 112 µM (not active)

CCOc1ccc(N2C(=O)S/C(=C\c3cccn3C)C2=O)cc1
EC50 [9]: > 300 µM (inconclusive)
EC50 [10]: > 300 µM (not active)
EC50 [7]: > 112 µM (not active)
EC50 [8]: > 112 µM (not active)

C(=N\c1ccc(N2CCOCC2)cc1)/c1c[nH]c2ccccc12
IC50 (Large T antigen): 4.34 µM (active)

COc1ccc(Cl)cc1N=C(N)Nc1nc(C)cc(C)n1
EC50 [1]: 2.11 µM (active)

Cc1ccc(S(=O)(=O)N2CCCOC2CNC(=O)C(=O)NCCc2c[nH]c3ccccc23)cc1 (stereo not given)
IC50 (Large T antigen): 86.8 µM (active)

COc1ccc(O)c(CN2CCCC(C(=O)c3sccc3C)C2)c1 (stereo not given)
EC50 [1]: 3.35 µM (active)

O=C(CSc1nc2sc3c(c2c(=O)n1-c1ccccc1)CCCC3)N/N=C/c1ccc(C(=O)O)cc1
IC50 [11]: 25.9 µM (active)

O=C(Cn1cnc2c(nnn2-c2cccc(Cl)c2)c1=O)NCc1ccccc1
IC50 [11]: 8.16 µM (active)

c1ccc(-c2nc(-c3cccs3)[nH]c2-c2ccccc2)cc1
EC50 [2]: 42.6 µM (inactive)
EC50 [3]: > 79.4 µM (not active)
EC50 [4]: 32.3 µM (not active)

Cn1c(S)nnc1-c1sc2cc(C(F)(F)F)cnc2c1-c1ccccc1
EC50 [2]: 3.6 µM (active)
EC50 [3]: 16.3 µM (not active)
EC50 [4]: 5.17 µM (active)

CCOC(=O)c1ccc2c(c1)nc(S)n2CC
EC50 [2]: 17.5 µM (inactive)
EC50 [3]: > 79.4 µM (not active)
EC50 [4]: 15.7 µM (not active)

COc1ccc(-c2nc(C[S+]([O-])CC(=O)NCCc3ccc(C)cc3)c(C)o2)cc1OC (stereo not given)
EC50 [7]: > 112 µM (not active)
EC50 [8]: > 112 µM (not active)

CN(Cc1ccccc1)c1ccc(S(=O)(=O)N2CCOCC2)cn1
EC50 [7]: > 112 µM (not active)
EC50 [8]: > 112 µM (not active)

O=S(=O)(Nc1ccccc1)c1ccc(-c2csnn2)cc1
IC50 (Coagulation factor XII): > 50 µM (inactive)

C/C(=N\Nc1ccc(Cl)c(C(=O)O)c1)c1ccc[nH]1
EC50 [9]: > 300 µM (not active)
EC50 [10]: > 150 µM (not active)
IC50 [11]: 4.28 µM (active)

CCCn1c(=O)c2ccccc2n2c(SCCOc3ccccc3)nnc12
EC50 [1]: 5.96 µM (active)

O=C(O)c1ccc(N=C(NS(=O)(=O)c2ccc(Cl)cc2)c2ccccc2)cc1
IC50 (Coagulation factor XII): > 50 µM (inactive)

COc1ccc(C(=O)C2=C(O)C(=O)N(c3cc(C)on3)C2c2ccccc2OC)cc1 (stereo not given)
EC50 [2]: 22.9 µM (inactive)
EC50 [3]: > 79.4 µM (not active)
EC50 [4]: 18.2 µM (not active)

O=C(CN1C(=O)c2cccc3cccc1c23)NCc1ccc2c(c1)OCO2
IC50 (Coagulation factor XII): > 50 µM (inactive)

N=C1/C(=C/c2ccc(Br)o2)C(=O)N=C2SC(CC(=O)N3CCCC3)=NN12
IC50 (Large T antigen): 58.3 µM (active)
IC50 [11]: > 80 µM (inactive)

COC(=O)c1sccc1NC(=O)Nc1cccc(C)c1
EC50 [7]: 0.21 µM (active)
EC50 [8]: 2.5 µM (active)

COC(=O)c1c(N=C(S)Nc2ccccc2Cl)sc(C)c1C
EC50 [2]: 84.9 µM (inactive)
EC50 [3]: > 79.4 µM (not active)
EC50 [4]: 28.6 µM (not active)

CCOc1ccccc1-c1nnc(S)o1
EC50 [2]: > 2.94 µM (inactive)
EC50 [3]: > 79.4 µM (not active)
EC50 [4]: 35.6 µM (not active)

Cc1ccsc1/C=N/Nc1nc(O)nnc1C
EC50 [7]: 0.519 µM (active)
EC50 [8]: 5.47 µM (active)

O=C(OCC(=O)c1ccc(Cl)s1)c1ccc2ccccc2n1
IC50 (Coagulation factor XII): > 50 µM (inactive)

Cc1ccc(CSc2nnc3c(n2)OC2(Nc4ccccc4-3)C(=O)Nc3ccc(F)cc32)cc1 (stereo not given)
IC50 (Genome polyprotein): 25 µM (active)

Fc1cccc(Nc2c3c(nc4ccccc24)CCC3)c1
EC50 [1]: 1.19 µM (active)
